According to PubChem BioAssay AID1963867 (Molecular Pharmacology Branch, DTP, NCI, 2024):

System: KRAS-mutant PDC tumor spheroid with HUVEC/MSC, viability
Test: Anticancer human tumor 327498-153-R-J2-PDC patient-derived uterine carcinosarcoma cell line growth inhibition [KRAS2]
Conditions: for IC50: curve of first compound; for viability, T/C: stronger effect = lower value
Procedure, shortened: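 Combination screen of spheroid viability in tumor-cell co-cultures with endothelial (HUVEC) and mesenchymal stem cell stroma. Each agent was tested in half-log dilutions, topping at clinical Cmax or at 10 microM without a known Cmax.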

[1] = second compound 0.1 µM, first compound 0.0316 µM
[2] = second compound 0.1 µM, first compound 0.1 µM
[3] = second compound 0.1 µM, first compound 0.316 µM
[4] = second compound 0.1 µM, first compound 1 µM
[5] = second compound 0.1 µM, first compound 3.16 µM
[6] = second compound 0.1 µM, first compound 10 µM
[7] = second compound 0.316 µM, first compound 0.0316 µM
[8] = second compound 0.316 µM, first compound 0.1 µM
[9] = second compound 0.316 µM, first compound 0.316 µM
[10] = second compound 0.316 µM, first compound 1 µM
[11] = second compound 0.316 µM, first compound 3.16 µM
[12] = second compound 0.316 µM, first compound 10 µM
[13] = second compound 1 µM, first compound 0.0316 µM
[14] = second compound 1 µM, first compound 0.1 µM
[15] = second compound 1 µM, first compound 0.316 µM
[16] = second compound 1 µM, first compound 1 µM
[17] = second compound 1 µM, first compound 3.16 µM
[18] = second compound 1 µM, first compound 10 µM
[19] = second compound 3.16 µM, first compound 0.0316 µM
[20] = second compound 3.16 µM, first compound 0.1 µM
[21] = second compound 3.16 µM, first compound 0.316 µM
[22] = second compound 3.16 µM, first compound 1 µM
[23] = second compound 3.16 µM, first compound 3.16 µM
[24] = second compound 3.16 µM, first compound 10 µM
[25] = second compound 10 µM, first compound 0.0316 µM
[26] = second compound 10 µM, first compound 0.1 µM
[27] = second compound 10 µM, first compound 0.316 µM
[28] = second compound 10 µM, first compound 1 µM
[29] = second compound 10 µM, first compound 3.16 µM
[30] = second compound 10 µM, first compound 10 µM
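Further: spheroids exposed to agents for seven days before reading.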
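Wherever viability, T/C is given: 100% = DMSO vehicle wells so lower means fewer viable cells.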

## COc1cc(Nc2ncc3c(n2)-c2ccc(Cl)cc2C(c2c(F)cccc2OC)=NC3)ccc1C(=O)O + COc1cc2nc(C)nc(NC(C)c3cc(N)cc(C(F)(F)F)c3)c2cc1OC1CCOC1
Second compound 0.1 µM
  IC50: < 31.6 nM
Second compound 0.316 µM
  IC50: < 31.6 nM
Second compound 1 µM
  IC50: < 31.6 nM
Second compound 3.16 µM
  IC50: < 31.6 nM
Second compound 10 µM
  IC50: < 31.6 nM
[1]
  viability, T/C: 17.7%
[2]
  viability, T/C: 12.6%
[3]
  viability, T/C: 9.32%
[4]
  viability, T/C: 9.41%
[5]
  viability, T/C: 13.8%
[6]
  viability, T/C: 12.8%
[7]
  viability, T/C: 16.1%
[8]
  viability, T/C: 11.8%
[9]
  viability, T/C: 12.2%
[10]
  viability, T/C: 9.86%
[11]
  viability, T/C: 12.5%
[12]
  viability, T/C: 12.2%
[13]
  viability, T/C: 13.3%
[14]
  viability, T/C: 10.3%
[15]
  viability, T/C: 13.1%
[16]
  viability, T/C: 10.5%
[17]
  viability, T/C: 11.7%
[18]
  viability, T/C: 11.5%
[19]
  viability, T/C: 13.1%
[20]
  viability, T/C: 10.9%
[21]
  viability, T/C: 9.78%
[22]
  viability, T/C: 9.93%
[23]
  viability, T/C: 10.5%
[24]
  viability, T/C: 10.5%
[25]
  viability, T/C: 8.09%
[26]
  viability, T/C: 8.45%
[27]
  viability, T/C: 5.81%
[28]
  viability, T/C: 4.52%
[29]
  viability, T/C: 8.87%
[30]
  viability, T/C: 4.93%

## COc1cc2nccc(Oc3ccc(NC(=O)C4(C(=O)Nc5ccc(F)cc5)CC4)cc3)c2cc1OC + COc1cc2nc(C)nc(NC(C)c3cc(N)cc(C(F)(F)F)c3)c2cc1OC1CCOC1
Second compound 0.1 µM
  IC50: 689 nM
Second compound 0.316 µM
  IC50: 534 nM
Second compound 1 µM
  IC50: 379 nM
Second compound 3.16 µM
  IC50: 385 nM
Second compound 10 µM
  IC50: < 31.6 nM
[1]
  viability, T/C: 73.8%
[2]
  viability, T/C: 82.3%
[3]
  viability, T/C: 74.6%
[4]
  viability, T/C: 26.7%
[5]
  viability, T/C: 0.88%
[6]
  viability, T/C: 87%
[7]
  viability, T/C: 68.3%
[8]
  viability, T/C: 60.8%
[9]
  viability, T/C: 64.5%
[10]
  viability, T/C: 28.7%
[11]
  viability, T/C: 0.85%
[12]
  viability, T/C: 68.5%
[13]
  viability, T/C: 62.9%
[14]
  viability, T/C: 54%
[15]
  viability, T/C: 53.9%
[16]
  viability, T/C: 22.9%
[17]
  viability, T/C: 0.96%
[18]
  viability, T/C: 63.1%
[19]
  viability, T/C: 62.5%
[20]
  viability, T/C: 57.3%
[21]
  viability, T/C: 54.2%
[22]
  viability, T/C: 22.1%
[23]
  viability, T/C: 0.52%
[24]
  viability, T/C: 67.3%
[25]
  viability, T/C: 50.6%
[26]
  viability, T/C: 44.8%
[27]
  viability, T/C: 40.5%
[28]
  viability, T/C: 12.1%
[29]
  viability, T/C: 0.37%
[30]
  viability, T/C: 57.9%

## Cn1ncnc1[C@H]1c2n[nH]c(=O)c3cc(F)cc(c23)N[C@@H]1c1ccc(F)cc1 + COc1cc2nc(C)nc(NC(C)c3cc(N)cc(C(F)(F)F)c3)c2cc1OC1CCOC1
Second compound 0.1 µM
  IC50: 12.5 nM
Second compound 0.316 µM
  IC50: 9.03 nM
Second compound 1 µM
  IC50: 4.31 nM
Second compound 3.16 µM
  IC50: 7.37 nM
Second compound 10 µM
  IC50: 1.4 nM
Second compound 0.1 µM, first compound 0.000316 µM
  viability, T/C: 79.3%
Second compound 0.1 µM, first compound 0.001 µM
  viability, T/C: 82.3%
Second compound 0.1 µM, first compound 0.00316 µM
  viability, T/C: 68.9%
Second compound 0.1 µM, first compound 0.01 µM
  viability, T/C: 54.5%
[1]
  viability, T/C: 33.3%
[2]
  viability, T/C: 20.1%
Second compound 0.316 µM, first compound 0.000316 µM
  viability, T/C: 82.1%
Second compound 0.316 µM, first compound 0.001 µM
  viability, T/C: 63.5%
Second compound 0.316 µM, first compound 0.00316 µM
  viability, T/C: 68.6%
Second compound 0.316 µM, first compound 0.01 µM
  viability, T/C: 48.1%
[7]
  viability, T/C: 32.2%
[8]
  viability, T/C: 20.5%
Second compound 1 µM, first compound 0.000316 µM
  viability, T/C: 76.6%
Second compound 1 µM, first compound 0.001 µM
  viability, T/C: 69.7%
Second compound 1 µM, first compound 0.00316 µM
  viability, T/C: 50%
Second compound 1 µM, first compound 0.01 µM
  viability, T/C: 42.1%
[13]
  viability, T/C: 28.7%
[14]
  viability, T/C: 20.1%
Second compound 3.16 µM, first compound 0.000316 µM
  viability, T/C: 62.9%
Second compound 3.16 µM, first compound 0.001 µM
  viability, T/C: 68.8%
Second compound 3.16 µM, first compound 0.00316 µM
  viability, T/C: 58.1%
Second compound 3.16 µM, first compound 0.01 µM
  viability, T/C: 47.3%
[19]
  viability, T/C: 26.5%
[20]
  viability, T/C: 20.4%
Second compound 10 µM, first compound 0.000316 µM
  viability, T/C: 50%
Second compound 10 µM, first compound 0.001 µM
  viability, T/C: 51.6%
Second compound 10 µM, first compound 0.00316 µM
  viability, T/C: 48.5%
Second compound 10 µM, first compound 0.01 µM
  viability, T/C: 42%
[25]
  viability, T/C: 27.8%
[26]
  viability, T/C: 18.5%
